Values joined by “and” are separate entries in the source; they are usually repeats but may differ in a detail not shown here. Equal entries are not always repeated.
What was measured:
[1] = tested on: PDE4 enzyme isolated from U937 human monocytic cells; assay: PDE4 inhibition, cAMP hydrolysis assay; assay type: biochemical; conditions: PDE4 from U937 cells, cAMP hydrolysis
Procedure: PDE4 enzyme was isolated from U937 human monocytic cells and used for testing inhibition in a cAMP hydrolysis assay as previously described ([Schafer et al. 2010]). For the TNF-α production assay, human peripheral blood mono-nuclear cells (PBMC) were isolated from buffy coat of normal donor blood units (Blood Center of New Jersey, East Orange, NJ) by density centrifugation over Ficoll Hypaque (Pharmacia, Piscataway, NJ). Cells were cultured in RPMI 1640 (Life Technologies, Grand Island, NY) supplemented with 5% AB^+ human serum (Gemini Bio-products, Woodland, CA), 2-mM L-glutamine, 100-U/mL penicillin and 100-μg/mL streptomycin (Life Technologies). PBMC (2×10^5 cells) were plated in 96-well flat-bottom Costar tissue culture plates (Corning, NY) in duplicate. Cells were stimulated with lipopolysaccharides (LPS) (from Salmonella abortus equi; Sigma cat.no. L-1887, St.Louis, MO) at a final concentration of 1 ng/mL in the absence or presence of compounds. The compounds were dissolved in DMSO (Sigma) and subsequent dilutions were done in culture medium immediately before use. The compounds were added to cells 1 h before LPS stimulation. The cells were incubated for 16-18 h at 37°C in 5% CO2, and super-natants were then collected, diluted with culture medium and assayed for TNF-α levels by enzyme-linked immunosorbent assay (ThermoFisher, Rockford, IL). Fifty percent inhibitory concentrations (IC50) for the PDE4 enzymatic and TNF-α assay were calculated by non-linear regression analysis using Prism 5.1 (GraphPad Software). Regression curves were sigmoidal dose response curves with maximum and minimum constrained to 100% and 0%, respectively.

[2] = Mass balance: excretion of radioactivity in urine and faeces after a single oral [14C]apremilast dose; assay type: in vivo, human
Procedure: This was an open-label, inpatient, single-dose study conducted with six non-smoking healthy male volunteers, aged between 19 and 55 years, with body mass index between 19 and 29kg/m^2. Before initiation of the study, the protocol and consent form were reviewed and approved by the institutional review board. All study participants gave written informed consent before the screening process was initiated. This study was conducted in full accordance with the Declaration of Helsinki and Good Clinical (GCP) as required by and described in 21 Code of Federal Regulations.
Each subject was administered a single oral suspension of 20 mg (100 μCi) of [^14C] apremilast in distilled water (240mL total volume). Subjects were fasted for 8 h prior to and 4 h following dose administration. The residual radioactivity in the dosing vials was determined and accounted for approximately 0.3% of the total radioactivity. Dose administration, sample collection, sample processing and determination of total radioactivity were conducted at MDS Pharma Services (Lincoln, NE). Determination of apremilast in plasma, metabolite profiling and metabolite characterization were performed at XenoBiotic Laboratories, Inc. (Plainsboro, NJ).
Urine was collected pre-dose, 0-4, 4-8, 8-12, 12-24 and every 24 h thereafter up to 216h (9 days) following dose administration and was stabilized with one volume of pH 1.5 Sorensen's citrate buffer (25-mM sodium citrate buffer adjusted to pH 1.5). […] Blood (two 5-mL samples for plasma radioactivity counting, a 3-mL sample for whole blood radioactivity counting, a 2-mL sample for apremilast analysis and a 10-mL sample for metabolite profiling) was collected into heparinized tubes at pre-dose, 0.5, 1, 1.5, 2, 2.5, 3, 4, 6, 8, 12, 16, 24, 36, 48, 72, 96, 120, 144 and 168 h following dose administration. Blood samples collected for radioactivity counting were stored at or below -20°C until analysed. […] All urine, faecal homogenates and plasma samples were stored at or below -20°C until analysed.
All radioactivity determinations were performed using a Tri-Carb model 1600TR liquid scintillation counter (PerkinElmer, Wellesley, MA). For plasma and urine analysis, duplicate samples of a known volume were mixed with Ultima Gold XR scintillation cocktail and directly analysed by liquid scintillation counting. […] Using these criteria, the lower limit of quantification in plasma, blood, urine and faeces were 2.07 ng [^14C]apremilast equivalent/mL (ngEq/mL), 2.61 ngEq/g, 1.89 ngEq/mL and 2.52 ngEq/g, respectively.
The amount of total radioactivity (ngEq) in urine and faeces was determined by multiplying the volume or weight of the samples by the radioactivity concentration. […] For data values below the limit of quantification, a value of zero was assigned for calculations of means.

IC50 [1]: 74 nM
Amount of drug absorbed ([2]; based on urinary radioactivity): at least 58%
Faecal excretion of radioactivity, mean (percentage of dose) ([2]; collection over 216 h, listed as [^14C]apremilast): 39% and 39.2%
Amount of drug absorbed ([2]; if faecal metabolites are included in the calculation): > 80%
Radioactivity recovered within the first 4 days (96 h) ([2]; urine plus faeces, 96 h after dose, listed as [^14C]apremilast): > 90% and > 92%
SMILES: CCOc1cc([C@@H](CS(C)(=O)=O)N2C(=O)c3cccc(NC(C)=O)c3C2=O)ccc1OC [Apremilast, (+)-N-[2-[(lS)-1-(3-ethoxy-4-methoxyphenyl)-2-(methylsulfonyl)ethyl]-1,3-dioxo-2,3-dihydro-lH-isoindol-4-yl]acetamide]
